Data as given in the supplement of paper PMC10307832.

What was measured:
Assay in all cases: relative viability (nuclei count vs DMSO), 5 days (fraction); higher = more cells survive
Everolimus + Vorinostat = compound: CO[C@H]1C[C@@H]2CC[C@@H](C)[C@@](O)(O2)C(=O)C(=O)N2CCCC[C@H]2C(=O)O[C@H]([C@H](C)C[C@@H]2CC[C@@H](OCCO)[C@H](OC)C2)CC(=O)[C@H](C)/C=C(\C)[C@@H](O)[C@@H](OC)C(=O)[C@H](C)C[C@H](C)/C=C/C=C/C=C/1C [Everolimus] + O=C(CCCCCCC(=O)Nc1ccccc1)NO [Vorinostat] (partner 1 µM)
In short: (§1)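 Relative viability was taken as the ratio of nuclei in treated wells to nuclei in vehicle wells. Lung cancer cell lines in 1536-well plates received compounds by pin tool one day after seeding, either one drug alone or a fixed anchor-drug dose plus five library-drug doses (not always all listed) in √10 steps. Nuclei were counted on 4× images after 5 days of treatment, and values are medians of duplicate plates.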

Everolimus + Dasatinib = compound: CO[C@H]1C[C@@H]2CC[C@@H](C)[C@@](O)(O2)C(=O)C(=O)N2CCCC[C@H]2C(=O)O[C@H]([C@H](C)C[C@@H]2CC[C@@H](OCCO)[C@H](OC)C2)CC(=O)[C@H](C)/C=C(\C)[C@@H](O)[C@@H](OC)C(=O)[C@H](C)C[C@H](C)/C=C/C=C/C=C/1C [Everolimus] + Cc1nc(Nc2ncc(C(=O)Nc3c(C)cccc3Cl)s2)cc(N2CCN(CCO)CC2)n1 [Dasatinib] (partner 0.075 µM)
In short: as §1

Everolimus + Pemetrexed = compound: CO[C@H]1C[C@@H]2CC[C@@H](C)[C@@](O)(O2)C(=O)C(=O)N2CCCC[C@H]2C(=O)O[C@H]([C@H](C)C[C@@H]2CC[C@@H](OCCO)[C@H](OC)C2)CC(=O)[C@H](C)/C=C(\C)[C@@H](O)[C@@H](OC)C(=O)[C@H](C)C[C@H](C)/C=C/C=C/C=C/1C [Everolimus] + Nc1nc2[nH]cc(CCc3ccc(C(=O)N[C@@H](CCC(=O)O)C(=O)O)cc3)c2c(=O)[nH]1 [Pemetrexed] (partner 0.2 µM)
In short: as §1

Everolimus + Palbociclib = compound: CO[C@H]1C[C@@H]2CC[C@@H](C)[C@@](O)(O2)C(=O)C(=O)N2CCCC[C@H]2C(=O)O[C@H]([C@H](C)C[C@@H]2CC[C@@H](OCCO)[C@H](OC)C2)CC(=O)[C@H](C)/C=C(\C)[C@@H](O)[C@@H](OC)C(=O)[C@H](C)C[C@H](C)/C=C/C=C/C=C/1C [Everolimus] + CC(=O)c1c(C)c2cnc(Nc3ccc(N4CCNCC4)cn3)nc2n(C2CCCC2)c1=O [Palbociclib] (partner 0.5 µM)
In short: as §1

Cell Line	relative viability (Everolimus + Vorinostat; first compound 0.01 µM)	relative viability (Everolimus + Vorinostat; first compound 0.03162 µM)	relative viability (Everolimus + Vorinostat; first compound 0.1 µM)	relative viability (Everolimus + Vorinostat; first compound 0.3162 µM)	relative viability (Everolimus + Vorinostat; first compound 1 µM)	relative viability (Everolimus + Dasatinib; first compound 0.01 µM)	relative viability (Everolimus + Dasatinib; first compound 0.03162 µM)	relative viability (Everolimus + Dasatinib; first compound 0.1 µM)	relative viability (Everolimus + Dasatinib; first compound 0.3162 µM)	relative viability (Everolimus + Dasatinib; first compound 1 µM)	relative viability (Everolimus + Pemetrexed; first compound 0.01 µM)	relative viability (Everolimus + Pemetrexed; first compound 0.03162 µM)	relative viability (Everolimus + Pemetrexed; first compound 0.1 µM)	relative viability (Everolimus + Pemetrexed; first compound 0.3162 µM)	relative viability (Everolimus + Pemetrexed; first compound 1 µM)	relative viability (Everolimus + Palbociclib; first compound 0.01 µM)	relative viability (Everolimus + Palbociclib; first compound 0.03162 µM)	relative viability (Everolimus + Palbociclib; first compound 0.1 µM)	relative viability (Everolimus + Palbociclib; first compound 0.3162 µM)	relative viability (Everolimus + Palbociclib; first compound 1 µM)
201T	0.844	0.908	0.81	0.806	0.809	0.592	0.595	0.521	0.547	0.519	0.365	0.383	0.32	0.307	0.317	0.322	0.306	0.274	0.306	0.231
A-427	0.781	0.817	0.751	0.829	0.843	0.527	0.526	0.397	0.462	0.489	0.757	0.856	0.799	0.788	0.891	0.474	0.546	0.445	0.48	0.557
ABC-1	0.56		0.741		0.941		0.393	0.413	0.455	0.513						0.468		0.43		0.598
BEN	0.401	0.337	0.368	0.353	0.391	0.221	0.209	0.217	0.236	0.211	0.552	0.458	0.501	0.521	0.618	0.442	0.421	0.443	0.438	0.463
CAL-12T	0.267	0.29	0.237	0.321	0.318	0.274	0.261	0.194	0.289	0.189	0.572	0.58	0.664	0.653	0.627	0.461	0.236	0.152	0.217	0.388
COR-L23	0.322	0.336	0.308	0.381	0.367	0.429	0.498	0.432	0.497	0.485	0.196	0.194	0.189	0.193	0.186	0.224	0.27	0.233	0.271	0.218
COR-L 105	0.58	0.465	0.535	0.572	0.59	0.25	0.262	0.211	0.253	0.233	0.9	0.806	0.75	0.792	0.716	0.465	0.368	0.365	0.344	0.343
ChaGo-K-1	0.678	0.688	0.62	0.662	0.726	0.523	0.565	0.532	0.521	0.61	0.247	0.265	0.26	0.244	0.249	0.798	0.806	0.802	0.768	0.914
EKVX	0.72	0.567	0.429	0.451	0.425	0.539	0.435	0.419	0.366	0.287		0.378	0.371	0.345	0.389		0.217	0.188	0.2	0.237
EMC-BAC-2	0.278	0.267	0.299		0.292	0.24	0.242	0.189	0.219	0.278	0.469	0.491	0.445	0.45	0.491	0.414	0.376	0.346	0.357	0.324
EPLC-272H	0.512	0.306	0.289	0.336	0.305	0.235	0.266	0.213	0.227	0.276	0.343	0.317	0.397	0.313	0.315	0.307	0.323	0.284	0.286	0.259
H3255	0.474	0.82	0.47	0.446	0.549	0.35	0.266	0.332	0.239	0.335	0.459	0.458	0.478	0.449	0.455	0.314	0.294	0.319	0.322	0.307
HARA	0.431	0.494	0.407	0.371	0.485	0.199	0.244		0.209	0.289	0.294	0.245	0.26	0.238	0.202	0.242	0.189	0.218	0.241	0.169
HCC-15	0.937	0.862	0.767	0.753	0.77	0.667	0.546	0.417	0.561	0.489	0.222	0.273	0.23	0.231	0.222	0.73	0.79	0.627	0.697	0.76
HCC-44	1.17	1.23	1.03	1.14	1.05						0.769	0.802	0.675	0.705	0.727	1.01	1	0.997	1.07	1.1
HCC-78	0.401	0.372	0.416	0.367	0.307	0.328	0.291	0.248	0.263	0.343	0.902	0.929	0.873	0.914	0.93	0.477	0.489	0.513	0.485	0.379

Cell Line	relative viability (Everolimus + Vorinostat; first compound 0.01 µM)	relative viability (Everolimus + Vorinostat; first compound 0.03162 µM)	relative viability (Everolimus + Vorinostat; first compound 0.1 µM)	relative viability (Everolimus + Vorinostat; first compound 0.3162 µM)	relative viability (Everolimus + Vorinostat; first compound 1 µM)	relative viability (Everolimus + Dasatinib; first compound 0.01 µM)	relative viability (Everolimus + Dasatinib; first compound 0.03162 µM)	relative viability (Everolimus + Dasatinib; first compound 0.1 µM)	relative viability (Everolimus + Dasatinib; first compound 0.3162 µM)	relative viability (Everolimus + Dasatinib; first compound 1 µM)	relative viability (Everolimus + Pemetrexed; first compound 0.01 µM)	relative viability (Everolimus + Pemetrexed; first compound 0.03162 µM)	relative viability (Everolimus + Pemetrexed; first compound 0.1 µM)	relative viability (Everolimus + Pemetrexed; first compound 0.3162 µM)	relative viability (Everolimus + Pemetrexed; first compound 1 µM)	relative viability (Everolimus + Palbociclib; first compound 0.01 µM)	relative viability (Everolimus + Palbociclib; first compound 0.03162 µM)	relative viability (Everolimus + Palbociclib; first compound 0.1 µM)	relative viability (Everolimus + Palbociclib; first compound 0.3162 µM)	relative viability (Everolimus + Palbociclib; first compound 1 µM)
HCC-366	0.221	0.16	0.181	0.214	0.165	0.459	0.593	0.477	0.46	0.354	0.339	0.307	0.284	0.216	0.173	0.337	0.156	0.216	0.207	0.106
HCC-827	0.643	0.578	0.709	0.827	0.794	0.221	0.331	0.2	0.168	0.17	0.22	0.251	0.194	0.275	0.243	0.459	0.409	0.331	0.479	0.277
HOP-62	0.475	0.345	0.388	0.389	0.361	0.394	0.424	0.352	0.382	0.387	0.326	0.401	0.337	0.375	0.338	0.418	0.304	0.268	0.294	0.268
IA-LM	0.815	0.83	0.425	0.342	0.352															
LC-2-ad	0.851	0.865	0.759	0.79	0.728	0.544	0.51	0.515	0.427	0.505	0.275	0.301	0.286	0.291	0.253	0.543	0.572	0.564	0.561	0.475
LCLC-97TM1	0.62	0.616	0.688	0.659	0.379	0.929	0.851	0.932	0.836	0.917	0.165	0.195	0.196	0.18	0.211	0.225	0.217	0.159	0.164	0.173
LCLC-103H	0.747	0.755	0.734	0.712	0.617	0.404	0.305	0.35	0.319	0.322	0.43	0.453	0.472	0.45	0.438	0.511	0.49	0.465	0.453	0.546
LK-2	0.243	0.174	0.188	0.21	0.189	0.231		0.239	0.209	0.306	0.203	0.229	0.212	0.208	0.167	0.536	0.312	0.321	0.314	0.33
LOU-NH91	0.809	0.653	0.744	0.727	0.764	0.486	0.467	0.476	0.434	0.449	0.477	0.467	0.394	0.418	0.485	0.533	0.561	0.55	0.54	0.547
LU99A	0.367	0.371	0.325	0.311	0.471	0.452	0.499	0.439	0.284	0.35	0.206	0.24	0.248	0.189	0.254	0.242	0.237	0.234	0.203	0.243
LXF-289	0.909	0.831	0.817	0.987	0.934	0.291	0.199	0.151	0.197	0.178	1.09	1.07	0.823	1.12	1.02	0.583	0.542	0.504	0.504	0.476
NCI-H596	0.505	0.741	0.414	0.421	0.419	0.395	0.428	0.392	0.462	0.482	0.454	0.46	0.471	0.433	0.443					
NCI-H727	0.915	0.797	0.79	0.922	0.886	0.242	0.317		0.445	0.276						0.642	0.529	0.725	0.613	0.643
NCI-H1563						0.434	0.419	0.462	0.464	0.437	0.715	0.572	0.618	0.576	0.546					
NCI-H1648	0.422	0.383	0.307	0.423	0.406						0.544	0.538	0.659	0.629	0.742	0.257	0.21	0.259	0.22	0.222
NCI-H1792						0.732	0.435	0.562	0.518	0.484	0.335	0.245	0.318	0.315	0.183	0.776	0.518	0.448	0.464	0.376
